In US12629406B2, “Alterations in endothelin receptors following hemorrhage and resuscitation by centhaquin” (MIDWESTERN UNIVERSITY, priority 2018, dated 2026):

Experiments:
[1] = test system: isolated, perfused rabbit heart; conditions: cited from earlier work
[2] = in vivo; cited from earlier work
[3] = Renal blood flow of hemorrhaged rats subjected to 20 minutes of renal artery occlusion; assay type: in vivo, rat
Method: Effect of centhaquin on renal blood perfusion of hemorrhaged rats. Hemorrhaged rats were resuscitated with vehicle (saline) or centhaquin low dose (0.01 mg/kg) or high dose (0.1 mg/kg). The effect of centhaquin on renal blood perfusion was measured before the induction of shock, 30 minutes after shock (hemorrhage) and 10, 30, 60, 90 and 120 minutes after resuscitation. […] This improved renal medullary blood perfusion is indicative of a use of centhaquin to prevent or treat injury to the kidneys (FIG. 5). […] A low dose of 0.02 mg/kg of centhaquin was also found to be effective in increasing the renal blood flow of hemorrhaged rats subjected to 20 minutes of renal artery occlusion.

[4] = Rat hemorrhagic shock, normal saline resuscitation: blood gases, hematocrit, lactate, MAP; assay type: in vivo
Method: Animal Studies. Male Sprague-Dawley rats (340 to 380 g) (Envigo, Indianapolis, IN) were housed for at least 4 days in a room with controlled temperature (23±1° C.), humidity (50±10%) and light (6:00 A.M. to 6:00 P.M.) before being used. Food and water were made available continuously. Animal care and use for experimental procedures were approved by the Institutional Animal Care and Use Committee of the Midwestern University. All anesthetic and surgical procedures were in compliance with the guidelines established by the Animal Care Committee.
(§1) Determination of cardiovascular response. The animals were anesthetized with urethane dissolved in isotonic saline. Urethane was administered in a dose of 1.5 g per kg body weight via intraperitoneal injection. Urethane was selected as an anesthetic agent, because it produces long lasting (8-10 hours) anesthesia with minimal cardiovascular and respiratory system depression. It produces a level of surgical anesthesia characterized by preservation of cardiovascular reflexes (Maggi and Meli 1986). Briefly, anaesthetized rats were immobilized on a surgical board equipped with controlled heating pad. Blood PO2, Pco2 and pH, were maintained using a tracheotomy cannula connected to a rodent ventilator (Model 683, Harvard Apparatus Inc., Holliston, MA). MAP and HR were measured by cannulating the left femoral artery with pressure catheter SPR-320 (Millar Instruments), connected to the ML221 bridge amplifier (AD Instruments) through AEC-10C connector and the signals were acquired (1000 S^−1) using PowerLab 16/30 data acquisition system (Gulati et al. 2012; Pacher et al. 2008). A Perimed laser Doppler flow probe was placed in the renal medulla to measure blood perfusion and data was captured on PowerLab 16/30 data acquisition system. The left femoral vein was cannulated using PE 50 tubing (Clay Adams, Parsipanny, NJ) and secured for resuscitation.
Determination of arterial blood gases and base deficit. Baseline arterial blood pH, PO2, Pco2, Na^+, K^+ and lactate were monitored prior to induction of shock, 30 minutes after induction of shock, and 30 and 60 minutes following vehicle or centhaquin resuscitation. Blood samples (0.15 ml) were drawn from the arterial cannula using blood gas sampling syringes (Innovative Medical Technologies, Inc. Leawood, KS) and analyzed using a pHOx Ultra analyzer (Nova Biomedical Corporation, Waltham, MA). The base deficit was calculated using the formula (Davis et al. 1998; Paladino et al. 2008): SBD=0.9287×[HCO3^−−24.4+14.83×(pH-7.4)]
Induction of Hemorrhagic Shock. Hemorrhage was induced by withdrawing blood from the femoral artery at a rate of approximately 0.5 to 1 mL/min until a MAP of 35 mmHg was reached. This MAP was maintained for 30 minutes by further withdrawal of blood, if necessary. The hemorrhagic shock model used in the present study is a well-established rodent model of manageable pressure hemorrhage (Buehler et al. 2000; Gulati et al. 1997; Gulati and Sen 1998). The volume of blood loss was about approximately 8.0 ml in each rat and was similar in various groups, amounting to approximately 40% of the total blood. Measured hematocrit levels were similar in various groups. […]
(§2) Experimental design. […] Additional experiments were also carried out where the amount of norepinephrine (a very commonly used vasopressor during resuscitation) required to maintain MAP at 70 mmHg in normal saline (NS) or centhaquin (0.01 mg/kg) treated rats (volume equal to blood loss) was determined. […]

[5] = Renal medullary blood perfusion (laser Doppler) in hemorrhaged rats; assay type: in vivo, rat
Method: as §1, with “Blood PO2, Pco2 and pH, were maintained using a tracheotomy cannula connected to a rodent ventilator (Model 683, Harvard Apparatus Inc., Holliston, MA).” left out, “A Perimed laser Doppler flow probe was placed in the renal medulla to measure blood perfusion and data was captured on PowerLab 16/30 data acquisition system. The left femoral vein was cannulated using PE 50 tubing (Clay Adams, Parsipanny, NJ) and secured for resuscitation.” left out
Induction of Hemorrhagic Shock. […] Measured hematocrit levels were similar in various groups. […]
as §2

[6] = rat fixed pressure blood loss, rabbit uncontrolled bleeding with trauma, pig massive blood loss; cited from earlier work
[7] = Phase II study of PMZ-2010 as resuscitative agent for hypovolemic shock (CTRI/2017/03/008184), interim analysis; assay type: in vivo, human
Text: A prospective, multi-centric, randomized, double-blind, parallel, saline controlled phase II study of PMZ-2010 (centhaquin) as a resuscitative agent for hypovolemic shock due to excessive blood loss (CTRI/2017/03/008184) is being conducted. All subjects received standard treatment for shock (the type of treatment and care the enrolling institution would provide). Patients were randomly assigned to either control cohort (N=7) that received standard treatment along with normal saline or PMZ-2010 cohort (N=12) that received standard treatment along with PMZ-2010.

## Cc1cccc(N2CCN(CCc3ccc4ccccc4n3)CC2)c1 [centhaquin, 2-[2-(4-(3-methyphenyl)-1-piperazinyl)]ethyl-quinoline]
[1]
  inotropic effect, ventricular contractions: positive inotropic effect
[2]
  half-life: about one
  volume of distribution: high
[3]; high dose 0.2 mg/kg, versus 0.02 mg/kg
  increasing the renal blood flow: did not have the same efficacy
[3]; low dose 0.02 mg/kg
  increasing the renal blood flow: effective
[4]; centhaquin 0.01 and 0.10 mg/kg in normal saline
  effect on blood pH of hemorrhaged rats: significantly prevented the reduction of pH
[4]; centhaquin 0.01 and 0.10 mg/kg, p<0.01
  MAP post resuscitation: significant increase
[4]; normal saline model
  blood lactate levels compared to the saline group: decrease
  change in hematocrit after treatment: no change
[4]; resuscitation with centhaquin in normal saline
  effect on hemorrhage-induced decrease in pCO2 and increase in pO2: not affected
[5]; hemorrhaged female rats
  renal blood perfusion compared to equal volume of saline: significantly improved
[5]; hemorrhaged male rats, low doses of centhaquin
  renal blood perfusion compared to equal volume of saline: significantly improved
[6]
  mortality following hypovolemic shock: highly effective in reducing the mortality
[7]; 48 hours after resuscitation, control 15.4%
  increase of diastolic blood pressure: 34.9%
[7]; baseline and discharge
  blood urea nitrogen versus control cohort: similar
[7]; baseline to discharge, control 25.35%
  decrease of serum creatinine level: 42.61%
[7]; baseline to discharge, control 40.00%
  increase of glomerular filtration rate: 81.52%
[7]; control 5.09±3.14 days
  time spent on ventilator: 0.85 ± 0.71 days
[7]; control 18.4±12.1 mg
  total amount of vasopressors needed in first 48 hours of resuscitation: 1.3 ± 1.2 mg
[7]; control 47%
  decrease of blood lactate levels: 63%
[7]; control 57.3%
  time in intensive care unit, of the total hospital stay: 39.3%
[7]; first 48 hours, 12 patients
  Total Number of doses administered: 13 doses in 12 patients
[7]; first 48 hours, Mean ± SEM
  Number of doses per patient: 1.08 ± 0.08
[7]; in vivo
  increase in glomerular filtration rate, more compared to standard treatment: 41.52%
  reduction of serum creatinine levels, more compared to standard treatment: 17.26%
  total blood products administered in the first 48 hours, less than control: 23.4%
  total fluids needed in the first 48 hours of resuscitation, less than control: 19.9%
[7]; patients, N=12
  adverse events (primary endpoint of safety): no adverse event was reported
[7]; systolic and diastolic, baseline to discharge (FIG. 9)
  blood pressure increase versus control cohort: more than that observed in control cohort
[7]; until 48 hours after resuscitation, control 34.5%
  increase of systolic blood pressure from baseline: 45.2%
